Key:
Assay in all cases: relative viability (nuclei count vs DMSO), 5 days (fraction); higher = more cells survive
BI-D1870 + Lapatinib = compound: CC(C)CCN1c2nc(Nc3cc(F)c(O)c(F)c3)ncc2N(C)C(=O)C1C [BI-D1870] + CS(=O)(=O)CCNCc1ccc(-c2ccc3ncnc(Nc4ccc(OCc5cccc(F)c5)c(Cl)c4)c3c2)o1 [Lapatinib] (partner 2 µM)
How it was run: (§1)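 Five library-drug doses in √10 steps were combined with a fixed anchor-drug dose, or a single drug was given alone, by pin tool to lung cancer cell lines in 1536-well plates the day after seeding. Nuclei were stained and counted after 5 days. Relative viability is the nuclei count in treated wells over that in vehicle wells, taken as the median of duplicate plates.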

Zebularine + Palbociclib = compound: O=c1ncccn1[C@@H]1O[C@H](CO)[C@@H](O)[C@H]1O [Zebularine] + CC(=O)c1c(C)c2cnc(Nc3ccc(N4CCNCC4)cn3)nc2n(C2CCCC2)c1=O [Palbociclib] (partner 0.5 µM)
How it was run: as §1

Zebularine + Phenformin = compound: O=c1ncccn1[C@@H]1O[C@H](CO)[C@@H](O)[C@H]1O [Zebularine] + N=C(N)NC(=N)NCCc1ccccc1 [Phenformin] (partner 250 µM)
How it was run: as §1

Zebularine + Luminespib = compound: O=c1ncccn1[C@@H]1O[C@H](CO)[C@@H](O)[C@H]1O [Zebularine] + CCNC(=O)c1noc(-c2cc(C(C)C)c(O)cc2O)c1-c1ccc(CN2CCOCC2)cc1 [Luminespib] (partner 0.01 µM)
How it was run: as §1

Cell Line | relative viability (BI-D1870 + Lapatinib; first compound 0.04 µM) | relative viability (BI-D1870 + Lapatinib; first compound 0.1265 µM) | relative viability (BI-D1870 + Lapatinib; first compound 0.4 µM) | relative viability (BI-D1870 + Lapatinib; first compound 1.265 µM) | relative viability (BI-D1870 + Lapatinib; first compound 4 µM) | relative viability (Zebularine + Palbociclib; first compound 1 µM) | relative viability (Zebularine + Palbociclib; first compound 3.162 µM) | relative viability (Zebularine + Palbociclib; first compound 10 µM) | relative viability (Zebularine + Palbociclib; first compound 31.62 µM) | relative viability (Zebularine + Palbociclib; first compound 100 µM) | relative viability (Zebularine + Phenformin; first compound 1 µM) | relative viability (Zebularine + Phenformin; first compound 3.162 µM) | relative viability (Zebularine + Phenformin; first compound 10 µM) | relative viability (Zebularine + Phenformin; first compound 31.62 µM) | relative viability (Zebularine + Phenformin; first compound 100 µM) | relative viability (Zebularine + Luminespib; first compound 1 µM) | relative viability (Zebularine + Luminespib; first compound 3.162 µM) | relative viability (Zebularine + Luminespib; first compound 10 µM) | relative viability (Zebularine + Luminespib; first compound 31.62 µM) | relative viability (Zebularine + Luminespib; first compound 100 µM)
HCC-44 | 1.05 | 1.04 | 1.02 | 0.961 | 1.1 | 0.945 | 0.998 | 1.07 | 1.16 | 0.5 | 0.255 | 0.212 | 0.145 | 0.144 | 0.157 | 1.17 | 1.15 | 0.746 | 0.374 | 0.388
COR-L23 | 1.07 | 0.929 | 0.992 | 0.798 | 0.982 | 0.314 | 0.286 | 0.176 | 0.224 | 0.146 | 0.468 | 0.438 | 0.312 | 0.284 | 0.165 | 0.88 | 0.753 | 0.332 | 0.439 | 0.171
NCI-H727 | 1.15 | 0.819 | 0.786 | 1.18 | 0.673 | 0.652 | 0.729 | 0.69 | 0.634 | 0.618 | 0.628 |  |  | 0.693 | 0.528 | 0.382 |  |  | 1.01 | 0.272
NCI-H2087 | 1.14 | 1.09 | 1.34 | 1.36 | 0.877 | 0.275 | 0.207 | 0.243 | 0.218 | 0.185 | 0.524 | 0.448 | 0.272 | 0.385 | 0.352 | 0.19 | 0.17 | 0.143 | 0.176 | 0.141
BEN | 0.713 | 0.728 | 0.784 | 0.749 | 0.621 | 0.451 | 0.473 | 0.451 | 0.422 | 0.368 | 0.285 | 0.242 | 0.276 | 0.251 | 0.202 | 0.448 | 0.172 | 0.235 | 0.262 | 0.178
EKVX | 0.236 | 0.18 | 0.195 | 0.223 | 0.2 | 0.692 | 0.398 |  | 0.343 | 0.413 | 0.238 | 0.248 | 0.218 | 0.238 | 0.251 | 0.863 | 0.847 | 0.867 | 0.807 | 0.653
LXF-289 | 0.927 | 0.831 | 0.881 | 0.87 | 0.788 | 0.641 | 0.66 | 0.573 | 0.395 | 0.233 | 0.512 | 0.503 | 0.41 | 0.406 | 0.26 | 0.729 | 0.75 | 0.444 | 0.382 | 0.202
ABC-1 | 1.19 | 0.952 | 1.05 | 1.28 | 1.02 | 0.741 | 0.485 | 0.635 | 0.589 | 0.471 | 0.237 | 0.229 | 0.255 | 0.179 | 0.222 | 0.476 |  | 0.458 | 0.317 | 0.364
NCI-H650 | 1.04 | 0.726 | 0.836 | 0.975 | 0.879 | 0.358 | 0.376 | 0.296 | 0.263 | 0.195 | 0.454 | 0.45 | 0.409 | 0.295 | 0.285 | 0.776 | 0.742 | 0.595 | 0.355 | 0.224
NCI-H1650 | 0.822 | 0.715 | 0.721 | 0.753 | 0.738 | 0.349 | 0.359 | 0.311 | 0.504 | 0.285 | 0.493 | 0.476 | 0.307 | 0.492 | 0.353 | 0.188 | 0.222 | 0.176 | 0.234 | 0.225
NCI-H2085 | 0.731 | 0.71 | 0.739 | 0.926 | 0.654 | 0.451 | 0.47 | 0.509 | 0.552 | 0.394 | 0.761 | 0.663 | 0.566 | 0.673 | 0.539 | 0.625 | 0.436 | 0.339 | 0.423 | 0.277
NCI-H1793 | 0.937 | 0.557 | 0.679 | 1.03 | 0.971 | 0.364 | 0.309 | 0.214 | 0.186 | 0.221 | 0.4 | 0.39 |  | 0.237 | 0.168 | 0.196 | 0.197 |  | 0.203 | 0.142
LC-2-ad | 1.04 | 0.932 | 0.975 | 1.08 | 0.971 | 0.496 | 0.507 | 0.322 | 0.408 | 0.301 | 0.657 | 0.538 | 0.416 | 0.488 | 0.325 | 1.02 | 1.01 | 0.699 | 0.73 | 0.541
COR-L 105 | 0.387 | 0.363 | 0.355 | 0.407 | 0.335 | 0.515 | 0.373 | 0.416 | 0.406 | 0.43 | 0.581 | 0.488 | 0.314 | 0.575 | 0.53 | 0.844 | 0.839 | 0.508 | 1.06 | 0.652
NCI-H1355 | 0.955 | 0.959 | 0.907 | 1.21 | 0.809 | 0.402 | 0.371 | 0.384 | 0.303 | 0.252 | 0.507 | 0.45 | 0.425 | 0.403 | 0.294 | 0.93 | 0.654 | 0.595 | 0.452 | 0.29
H3255 | 0.221 | 0.266 | 0.258 | 0.296 | 0.244 | 0.3 | 0.288 | 0.336 | 0.314 | 0.321 | 0.34 | 0.369 | 0.361 | 0.401 | 0.353 | 1.04 | 0.816 | 0.797 | 0.972 | 0.909
